Experimental data as given in patent US20260285863A1, “COMPOUNDS CAPABLE OF MODULATING GPR65” (Pathios Therapeutics Limited, priority 2023, published 2026).
pIC50: −log10 of the molar value.

Biological target: T1, human recombinant GPR65 (Homo sapiens, UniProt Q8IYL9)
T1 construct: host or cells: 1321N1 human astrocytoma cells (1321N1-hrGPR65)
Assay: Human GPR65 cAMP HTRF antagonist assay
Format: cell-based
Settings: 1321N1-hrGPR65 cells, assay pH 7.2, cAMP HTRF; read-out: hGPR65 IC50
Text: The “Human GPR65 cyclic adenosine monophosphate (cAMP) Homogeneous Time Resolved Fluorescence (HTRF) antagonist assay”, or simply “cAMP assay”, as described in the accompanying examples, can be used to measure the potency of GPR65 modulators, which is expressed as the concentration of compound required to reduce the increase in cAMP concentration upon GPR65 activation by 50% (i.e. an IC50).
Human GPR65 Cyclic Adenosine Monophosphate (cAMP) Homogeneous Time Resolved Fluorescence (HTRF) Antagonist Assay Procedure
IC50data was obtained by the following procedure:
1321N1 human astrocytoma cells stably expressing human recombinant GPR65 (1321N1-hrGPR65 cells, EuroscreenFast) were cultured according to the vendor's instructions.
Compounds were tested for their ability to antagonise GPR65, through measuring the concentration of cytoplasmic cAMP following treatment of the cells at a pH of 7.2 to activate GPR65 signalling and addition of the compound to be tested. The extent to which the expected rise in cAMP concentration upon GPR65 activation was suppressed by the added compound is indicative of its potency. The assay was carried out according to EuroscreenFast assay Methodology as follows.
On the day of the assay, test compounds were added to 384-well, low volume, white microtiter plates by acoustic dispensing. KRH buffer (5 mM KCl, 1.25 mM MgSO4, 124 mM NaCl, 25 mM HEPES, 13.3 mM Glucose, 1.25 mM KH2PO4 and 1.45 mM CaCl2) was adjusted to pH 6.5, pH 7.6 and pH 8.4 by adding NaOH. 1321N1-hGPR65 cells were rapidly thawed and diluted in KRH, pH 7.6 prior to centrifugation at 300×g for 5 min and resuspension in assay buffer (KRH, pH 7.6, supplemented with 1 mM 3-isobutyl-1-methylxanthine (IBMX) and 200 μM ethylenediaminetetraacetic acid (EDTA)). Cells were added to assay plates at a density of 2,000 cells per well in a volume of […]. Assay plates were briefly centrifuged at 100×g and then incubated at room temperature for 30 min. Cells were stimulated by the addition of 5 μL KRH, pH 6.5, to achieve an assay pH of 7.2, while control wells received […] KRH, pH 8.4 to achieve an assay pH of 7.9. Assay plates were briefly centrifuged at 100×g and then incubated at room temperature for 30 min.
Accumulation of cAMP was detected by cAMP HTRF kit (Cisbio). d2-labeled cAMP and cryptate-labeled anti-cAMP antibody in Lysis and Detection Buffer (Cisbio) were added to assay plates, and the plates were incubated at room temperature for 1 h. HTRF measurements were performed using a Pherastar FSX instrument. Acceptor and donor emission signals were measured at 665 nm and 620 nm, respectively, and HTRF ratios were calculated as signal665 nm/signal620 nm×104. Data were normalised to high and low control values and fitted with 4-parameter logistic regression to determine hGPR65 IC50 values for the test compounds, which are shown in Table 1.

T1 sequence (Q8IYL9 whole entry): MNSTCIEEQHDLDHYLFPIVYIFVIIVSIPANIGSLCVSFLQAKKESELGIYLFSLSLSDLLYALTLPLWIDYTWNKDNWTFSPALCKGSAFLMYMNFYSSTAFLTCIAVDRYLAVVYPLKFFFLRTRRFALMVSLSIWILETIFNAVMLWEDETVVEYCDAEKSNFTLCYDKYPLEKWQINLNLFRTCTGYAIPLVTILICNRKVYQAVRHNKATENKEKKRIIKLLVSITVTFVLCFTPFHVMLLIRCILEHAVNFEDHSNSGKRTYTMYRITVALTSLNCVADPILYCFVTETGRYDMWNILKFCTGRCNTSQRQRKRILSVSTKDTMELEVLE

Compound	pIC50
Cn1ncc2cc(-c3cc(F)c(NC(=O)N4[C@H]5CC[C@@H]4c4c[nH]c(=O)cc4C5)cc3Cl)ccc21 [Compound 37, (6S,9R)-N-(5-chloro-2-fluoro-4-(1-methyl-1H-indazol-5-yl)phenyl)-3-oxo-3,5,6,7,8,9-hexahydro-2H-6,9-epiminocyclohepta[c]pyridine-10-carboxamide]	> 6.30
O=C(Nc1cc(Cl)c(-c2ccc(OCC3CC3(F)F)nc2)cc1F)N1[C@H]2CC[C@@H]1c1c[nH]c(=O)cc1C2 (stereo partly drawn) [Compound 38, (6S,9R)-N-(5-chloro-4-(6-((2,2-difluorocyclopropyl)methoxy)pyridin-3-yl)-2-fluorophenyl)-3-oxo-3,5,6,7,8,9-hexahydro-2H-6,9-epiminocyclohepta[c]pyridine-10-carboxamide]	> 6.30
O=C(Nc1cc(Cl)c(COc2cccc(OCC(F)(F)F)n2)cc1F)N1[C@H]2CC[C@@H]1c1c[nH]c(=O)cc1C2 [Compound 57, (6S,9R)-N-(5-chloro-2-fluoro-4-(((6-(2,2,2-trifluoroethoxy)pyridin-2-yl)oxy)methyl)phenyl)-3-oxo-3,5,6,7,8,9-hexahydro-2H-6,9-epiminocyclohepta[c]pyridine-10-carboxamide]	> 6.30
O=C(Nc1cc(Cl)c(-c2ccc(OCC(F)(F)F)nn2)cc1F)N1[C@H]2CC[C@@H]1c1n[nH]c(=O)cc1C2 [Compound 6, (6S,9R)-N-(5-chloro-2-fluoro-4-(6-(2,2,2-trifluoroethoxy)pyridazin-3-yl)phenyl)-3-oxo-3,5,6,7,8,9-hexahydro-2H-6,9-epiminocyclohepta[c]pyridazine-10-carboxamide]	> 6.30
O=C(Nc1cc(Cl)c(COc2cccc(F)n2)cc1F)N1[C@H]2CC[C@@H]1c1n[nH]c(=O)cc1C2 [Compound 52, (6S,9R)-N-(5-Chloro-2-fluoro-4-(((6-fluoropyridin-2-yl)oxy)methyl)phenyl)-3-oxo-3,5,6,7,8,9-hexahydro-2H-6,9-epiminocyclohepta[c]pyridazine-10-carboxamide]	> 6.30
O=C(Nc1cc(Cl)c(C(F)(F)F)cn1)N1C2CCC1[C@H](F)c1c2ccnc1F (mixture of isomers) [Compound 33, (±)(9S)-N-(4-chloro-5-(trifluoromethyl)pyridin-2-yl)-1,9-difluoro-6,7,8,9-tetrahydro-5H-5,8-epiminocyclohepta[c]pyridine-10-carboxamide]	> 6.30
Cc1nc2cc(-c3cc(F)c(NC(=O)N4[C@H]5CC[C@@H]4c4c[nH]c(=O)cc4C5)cc3Cl)ccc2n1C [Compound 19, (6S,9R)-N-(5-chloro-4-(1,2-dimethyl-1H-benzo[d]imidazol-5-yl)-2-fluorophenyl)-3-oxo-3,5,6,7,8,9-hexahydro-2H-6,9-epiminocyclohepta[c]pyridine-10-carboxamide]	5.30 to 6.30
O=C(NC12CC(c3ccc(OCC(F)(F)F)nc3)(C1)C2)N1[C@H]2CC[C@@H]1c1n[nH]c(=O)cc1C2 [Compound 7, (6S,9R)-3-Oxo-N-(3-(6-(2,2,2-trifluoroethoxy)pyridin-3-yl)bicyclo[1.1.1]pentan-1-yl)-3,5,6,7,8,9-hexahydro-2H-6,9-epiminocyclohepta[c]pyridazine-10-carboxamide]	5.30 to 6.30
COCCO[C@H]1C[C@@H](Oc2ccc(-c3cc(F)c(NC(=O)N4[C@H]5CC[C@@H]4c4c[nH]c(=O)cc4C5)cc3Cl)cn2)C1 [Compound 23, (6S,9R)-N-(5-chloro-2-fluoro-4-(6-((1s,3S)-3-(2-methoxyethoxy)cyclobutoxy)pyridin-3-yl)phenyl)-3-oxo-3,5,6,7,8,9-hexahydro-2H-6,9-epiminocyclohepta[c]pyridine-10-carboxamide]	> 6.30
O=C(Nc1cc(Cl)c(NCc2ccc(OCC(F)(F)F)cn2)cc1F)N1[C@H]2CC[C@@H]1c1n[nH]c(=O)cc1C2 [Compound 65, (6S,9R)-N-(5-chloro-2-fluoro-4-(((5-(2,2,2-trifluoroethoxy)pyridin-2-yl)methyl)amino)phenyl)-3-oxo-3,5,6,7,8,9-hexahydro-2H-6,9-epiminocyclohepta[c]pyridazine-10-carboxamide]	5.30 to 6.30
O=C(Nc1cc(Cl)c(COc2ccccc2)cc1F)N1[C@H]2CC[C@@H]1c1c[nH]c(=O)cc1C2 [Compound 53, (6S,9R)-N-(5-chloro-2-fluoro-4-(phenoxymethyl)phenyl)-3-oxo-3,5,6,7,8,9-hexahydro-2H-6,9-epiminocyclohepta[c]pyridine-10-carboxamide]	> 6.30
O=C(Nc1cc(Cl)c(-c2ccc(OC[C@H]3CC3(F)F)nc2)cc1F)N1[C@H]2CC[C@@H]1c1n[nH]c(=O)cc1C2 [Compound 81, (6S,9R)-N-(5-Chloro-4-(6-(((R)-2,2-difluorocyclopropyl)methoxy)pyridin-3-yl)-2-fluorophenyl)-3-oxo-3,5,6,7,8,9-hexahydro-2H-6,9-epiminocyclohepta[c]pyridazine-10-carboxamide]	> 6.30
O=C(Nc1cc(Cl)c(-c2ccc(OCC3CNC3)nc2)cc1F)N1[C@H]2CC[C@@H]1c1c[nH]c(=O)cc1C2 [Compound 63, (6S,9R)-N-(4-(6-(Azetidin-3-ylmethoxy)pyridin-3-yl)-5-chloro-2-fluorophenyl)-3-oxo-3,5,6,7,8,9-hexahydro-2H-6,9-epiminocyclohepta[c]pyridine-10-carboxamide]	5.30 to 6.30
Cn1cc(-c2cc(F)c(NC(=O)N3[C@H]4CC[C@@H]3c3c[nH]c(=O)cc3C4)cc2Cl)ccc1=O [Compound 30, (6S,9R)-N-(5-chloro-2-fluoro-4-(1-methyl-6-oxo-1,6-dihydropyridin-3-yl)phenyl)-3-oxo-3,5,6,7,8,9-hexahydro-2H-6,9-epiminocyclohepta[c]pyridine-10-carboxamide]	5.30 to 6.30
O=C(Nc1cc(Cl)c(-c2ccc3nonc3c2)cn1)N1[C@@H]2CC[C@H]1C(F)(F)c1c2ccnc1F [Compound 74, (5R,8S)-N-(5-(Benzo[c][1,2,5]oxadiazol-5-yl)-4-chloropyridin-2-yl)-1,9,9-trifluoro-6,7,8,9-tetrahydro-5H-5,8-epiminocyclohepta[c]pyridine-10-carboxamide]	> 6.30
O=C(Nc1cc(Cl)c(-c2ccc(OCC34CNC(C3)C4)nc2)cc1F)N1[C@H]2CC[C@@H]1c1c[nH]c(=O)cc1C2 [Compound 60, (6S,9R)-N-(4-(6-((2-azabicyclo[2.1.1]hexan-4-yl)methoxy)pyridin-3-yl)-5-chloro-2-fluorophenyl)-3-oxo-3,5,6,7,8,9-hexahydro-2H-6,9-epiminocyclohepta[c]pyridine-10-carboxamide]	5.30 to 6.30
O=C(Nc1cc(Cl)c(Cl)cn1)N1C2CCC1C(F)(F)c1c2ccnc1F (racemic) [Compound 36, (±)-N-(4,5-dichloropyridin-2-yl)-1,9,9-trifluoro-6,7,8,9-tetrahydro-5H-5,8-epiminocyclohepta[c]pyridine-10-carboxamide]	> 6.30
O=C(Nc1cc(Cl)c(C(F)(F)F)cc1F)N1[C@H]2CC[C@@H]1c1cc[n+]([O-])cc1C2 [Compound 67, (5R,8S)-10-((5-chloro-2-fluoro-4-(trifluoromethyl)phenyl)carbamoyl)-6,7,8,9-tetrahydro-5H-5,8-epiminocyclohepta[c]pyridine 2-oxide]	> 6.30
Cc1nc2cc(-c3cc(F)c(NC(=O)N4[C@H]5CC[C@@H]4c4c[nH]c(=O)cc4C5)cc3Cl)ccc2[nH]1 [Compound 68, (6S,9R)-N-(5-chloro-2-fluoro-4-(2-methyl-1H-benzo[d]imidazol-5-yl)phenyl)-3-oxo-3,5,6,7,8,9-hexahydro-2H-6,9-epiminocyclohepta[c]pyridine-10-carboxamide]	5.30 to 6.30
